Experimental data as given in patent publication US20110097409A1, “PARTICLES COMPRISING A SALT OF 8-HYDROXY-2-[[(1R)-2-(4-METHOXYPHENYL)-1-METHYLETHYL]AMINO]ETHYL]-2(1H)-QUINOLINONE HAVING IMPROVED ADHESION PROPERTIES FOR POWDER FORMULATIONS FOR INHALATION” (Chiesi Farmaceutici S.p.A., priority 2008, published 2011).
Counter-ions that a name gives are not always drawn.

Assays:
[1] = Force and work of adhesion by atomic force microscopy (colloid probe); type: physicochemical; settings: against smooth lactose carrier
Description: The force of adhesion of the batches of powder particles obtained in Example 1 has been determined according to the procedure reported hereafter in comparison to those to those of micronised carmoterol hydrochloride and budesonide raw materials (r.m.) obtained by a conventional milling process.
As a substrate, alpha-lactose particles with a smooth surface having the characteristics reported in EP 1 196 146 and obtained as therein described are used.
An Atomic Force Microscope (AFM) as a scanning probe microscope is used to image lactose surface on an nm or even sub-nm level and to measure surface forces between the powder particles of the invention and particles of smoothed lactose.
A way to get information on the surface forces which are acting in a system and to illustrate the functioning of an AFM, is to use the “Force-Mode”. This is done by moving the tip towards and away from the surface. Recording photodetector signal as a function of z-piezo elongation yields a curve which can be interpreted as a force-vs.-distance-curve. In this work, this technique has been employed to measure the drug-carrier adhesion force modifying the original cantilever.
The interaction of the micron-sized carmoterol particles with lactose carrier surfaces is conducted using the Explorer AFM (Thermomicroscopes, UK). A multistage micromanipulation method for the attachment of micrometer-sized drug particles to tipless cantilevers was adapted from the method described by Preuss and Butt (Preuss M, Butt H-J. 1998, Langmuir, 14:3164-3174). Essentially, colloid probes are prepared by mounting an individual drug particle (approximate diameter 3-5 μm) onto a V-shaped tiples silicon nitride cantilever (spring constant k=0.58 N/m, Veeco Instruments Ltd., Cambridge, UK) using a quick-setting epoxy resin together with the custom-built microscope.
Force separation measurements are collected using layered imaging mode to produce multiple force distance curves (n=250) between each drug probe at three surface sites over a 10 μm×10 μm area. As the variability in probe contact radius geometry was unknown each study is performed at least in triplicate (n=3 to 4 probes for each measurement).
The displacement curves for each of the 250 contact points in the 10 μm×10 μm sector are plotted using a custom built MatLab program (The Mathworks Inc. USA).
The force of adhesion (the apex of the adhesion peak) and the work of adhesion (integrated area of the adhesion peak) is calculated for each graph. […] Outliers are defined as data points outside the 5-95% limits of the normal distributions obtained, and these are removed automatically by the batch conversion software. […]

[2] = Shape factor SF and particle shape from SEM images; type: physicochemical
Protocol: Accordingly, the powder particles of the invention are characterized by a “shape factor” SF comprised between 0.8 and 1.0, preferably from 0.85 and 0.95 as determined according to the following equation reported in Kumar S et al., Curr. Appl. Phys. Influence of metal powder shape on drag coefficient in a spray jet, 2008, in press doi:10.1016/j.cap.2008.06.005.
RN indicates the roundness of the particle and is calculated by applying the following formula: […]
wherein p and A are the mean perimeter and area values, respectively, of ten spherical particles as measured from Scanning electron microscopy (SEM) images.
The shape factor of the obtained particles, calculated according to the equation reported in the Detailed Description of the Preferred Embodiments, turned out to be comprised between 0.87 and 0.95.

Structure (SMILES): COc1ccc(C[C@@H](C)NC[C@H](O)c2ccc(O)c3[nH]c(=O)ccc23)cc1 [Carmoterol HCl r.m., 8-hydroxy-5-[(1R)-1-hydroxy-2-[[(1R)-2-(4-methoxyphenyl)-1-methylethyl]amino]ethyl]-2(1H)-quinolinone]
- Force of adhesion Fmax ([1]; particle population (20%)): 11.03 ± 1.27 (20%) nN
- Work of adhesion Wad ([1]; particle population (20%)): 413.15 ± 131.85 µJ
- Force of adhesion Fmax ([1]; particle population (80%)): 42.68 ± 4.63 (80%) nN
- Work of adhesion Wad ([1]; particle population (80%)): 2115.69 ± 344.31 µJ
- shape factor SF ([2]; SF=1/RN, RN=p^2/4πA, from SEM images): 0.51
- particle shape by SEM inspection ([2]; scanning electron microscope, FIG. 1): different irregular flakes and/or sheets
